Measurements taken from ChEMBL document CHEMBL1201862, “PubChem BioAssay data set” (2004).
Activity calls are given as the source filed them. For most assays here, no stated cut-off is given here; in the data, actives have a measured EC50 and inactives only a lower limit.

Key:
[1] = target: T1, Protein RecA (Mycobacterium tuberculosis, UniProt P9WHJ3); assay: Fluorescence Cell-Free Homogeneous Dose Retest to Identify Inhibitors of RecA-Intein Splicing Activity. [Related pubchem assays (depositor defined):AID2097, AID2223, AID489010, AID492950]; assay type: functional
T1 sequence (P9WHJ3 whole entry): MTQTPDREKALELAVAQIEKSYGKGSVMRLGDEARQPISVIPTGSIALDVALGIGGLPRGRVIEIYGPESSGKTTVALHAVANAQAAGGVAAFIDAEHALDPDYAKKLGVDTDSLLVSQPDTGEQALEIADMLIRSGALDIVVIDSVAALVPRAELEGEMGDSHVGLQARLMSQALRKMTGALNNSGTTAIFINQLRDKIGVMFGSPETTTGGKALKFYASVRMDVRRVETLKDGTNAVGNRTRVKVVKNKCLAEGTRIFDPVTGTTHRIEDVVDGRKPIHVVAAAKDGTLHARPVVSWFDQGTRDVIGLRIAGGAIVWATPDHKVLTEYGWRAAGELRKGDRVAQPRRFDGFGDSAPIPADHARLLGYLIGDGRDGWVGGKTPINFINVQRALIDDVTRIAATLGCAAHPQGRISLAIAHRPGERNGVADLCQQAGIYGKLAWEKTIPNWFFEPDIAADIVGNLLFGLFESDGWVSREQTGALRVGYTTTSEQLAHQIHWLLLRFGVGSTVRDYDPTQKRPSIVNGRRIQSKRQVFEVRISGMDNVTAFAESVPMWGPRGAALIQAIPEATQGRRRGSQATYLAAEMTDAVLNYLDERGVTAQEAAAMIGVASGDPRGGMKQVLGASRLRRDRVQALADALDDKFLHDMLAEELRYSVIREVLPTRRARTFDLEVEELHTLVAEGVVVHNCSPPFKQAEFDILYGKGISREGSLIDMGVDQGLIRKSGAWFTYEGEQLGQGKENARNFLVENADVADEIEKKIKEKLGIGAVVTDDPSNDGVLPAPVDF

[2] = target: T2, Replicative DNA helicase DnaB (Mycobacterium tuberculosis, UniProt P9WMR3); assay: DnaB intein splicing inhibitors, dose response, biochemical, cell-free fluorescence (AID 449749); assay type: functional
T2 sequence (P9WMR3 whole entry): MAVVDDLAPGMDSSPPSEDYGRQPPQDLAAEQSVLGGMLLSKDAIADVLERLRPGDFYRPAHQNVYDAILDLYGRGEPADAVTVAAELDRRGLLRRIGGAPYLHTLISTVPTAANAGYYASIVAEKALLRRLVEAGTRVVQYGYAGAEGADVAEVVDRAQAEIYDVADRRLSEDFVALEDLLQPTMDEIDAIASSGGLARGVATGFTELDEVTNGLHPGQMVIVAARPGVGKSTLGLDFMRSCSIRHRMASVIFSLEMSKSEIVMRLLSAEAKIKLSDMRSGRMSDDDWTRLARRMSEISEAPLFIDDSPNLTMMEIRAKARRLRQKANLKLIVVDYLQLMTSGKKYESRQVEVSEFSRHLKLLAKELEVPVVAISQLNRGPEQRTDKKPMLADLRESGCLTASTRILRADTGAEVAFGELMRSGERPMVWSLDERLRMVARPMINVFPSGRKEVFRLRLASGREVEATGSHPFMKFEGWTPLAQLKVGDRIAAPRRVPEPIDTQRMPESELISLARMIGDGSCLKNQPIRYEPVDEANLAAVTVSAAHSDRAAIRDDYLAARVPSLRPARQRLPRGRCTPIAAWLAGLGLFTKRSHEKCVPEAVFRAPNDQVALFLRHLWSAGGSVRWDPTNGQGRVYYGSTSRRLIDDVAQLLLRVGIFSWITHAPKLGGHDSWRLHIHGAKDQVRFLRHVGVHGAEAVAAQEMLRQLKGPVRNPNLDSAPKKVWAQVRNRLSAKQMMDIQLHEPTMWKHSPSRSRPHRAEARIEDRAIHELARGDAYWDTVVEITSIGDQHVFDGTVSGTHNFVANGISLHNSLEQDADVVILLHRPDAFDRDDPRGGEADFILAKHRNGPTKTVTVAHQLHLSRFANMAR

[3] = target: T3, Rac GTPase-activating protein 1 (Homo sapiens, UniProt Q9H0H5); assay: blockers of MgcRacGAP-driven Rac1 GTP hydrolysis – biochemical, ADP Hunter fluorescence, primary and confirmatory, confirmation (AID 624330); assay type: functional
T3 sequence (Q9H0H5 whole entry): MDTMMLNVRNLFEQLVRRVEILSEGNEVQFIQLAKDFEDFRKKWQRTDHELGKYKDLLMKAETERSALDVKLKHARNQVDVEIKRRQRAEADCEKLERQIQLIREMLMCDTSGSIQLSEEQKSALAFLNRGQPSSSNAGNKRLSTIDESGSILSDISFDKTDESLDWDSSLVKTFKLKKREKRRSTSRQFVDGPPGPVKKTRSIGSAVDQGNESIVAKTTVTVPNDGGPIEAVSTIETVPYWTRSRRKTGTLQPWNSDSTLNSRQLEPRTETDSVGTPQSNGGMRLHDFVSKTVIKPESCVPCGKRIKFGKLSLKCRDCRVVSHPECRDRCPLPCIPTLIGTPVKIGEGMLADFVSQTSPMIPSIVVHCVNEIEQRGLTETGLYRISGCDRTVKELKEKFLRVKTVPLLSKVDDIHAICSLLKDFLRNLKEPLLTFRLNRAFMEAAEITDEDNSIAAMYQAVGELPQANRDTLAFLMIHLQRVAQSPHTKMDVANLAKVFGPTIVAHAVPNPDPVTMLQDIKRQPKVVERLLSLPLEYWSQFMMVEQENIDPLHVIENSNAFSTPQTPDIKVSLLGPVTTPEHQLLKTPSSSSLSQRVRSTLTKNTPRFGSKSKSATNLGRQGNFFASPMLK

[4] = target: FAD-linked sulfhydryl oxidase ALR (Homo sapiens, UniProt P55789); assay: ALR-catalysed DTT oxidation blockers – biochemical, H2O2 detection, luminescence, cherry-pick, dose response (AID 493248)
Sequence of FAD-linked sulfhydryl oxidase ALR (P55789 whole entry): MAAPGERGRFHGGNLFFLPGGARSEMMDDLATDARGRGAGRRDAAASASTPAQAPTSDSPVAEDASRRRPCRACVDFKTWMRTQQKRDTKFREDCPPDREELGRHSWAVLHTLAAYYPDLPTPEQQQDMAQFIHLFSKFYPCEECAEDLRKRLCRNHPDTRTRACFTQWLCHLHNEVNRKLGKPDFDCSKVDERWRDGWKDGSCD

[5] = Luminescence Cell-Based Dose Confirmation HTS to Identify Inhibitors of Platelet Dense Granule Release. [Related pubchem assays: 1663 (Primary HTS), 1678 (Summary of Project)]; assay type: functional
[6] = target: Luciferin 4-monooxygenase (Photinus pyralis, UniProt P08659); assay: inhibition of purified Photinus pyralis luciferase – biochemical, luminescence, dose response (AID 1891)
Sequence of Luciferin 4-monooxygenase (P08659 whole entry): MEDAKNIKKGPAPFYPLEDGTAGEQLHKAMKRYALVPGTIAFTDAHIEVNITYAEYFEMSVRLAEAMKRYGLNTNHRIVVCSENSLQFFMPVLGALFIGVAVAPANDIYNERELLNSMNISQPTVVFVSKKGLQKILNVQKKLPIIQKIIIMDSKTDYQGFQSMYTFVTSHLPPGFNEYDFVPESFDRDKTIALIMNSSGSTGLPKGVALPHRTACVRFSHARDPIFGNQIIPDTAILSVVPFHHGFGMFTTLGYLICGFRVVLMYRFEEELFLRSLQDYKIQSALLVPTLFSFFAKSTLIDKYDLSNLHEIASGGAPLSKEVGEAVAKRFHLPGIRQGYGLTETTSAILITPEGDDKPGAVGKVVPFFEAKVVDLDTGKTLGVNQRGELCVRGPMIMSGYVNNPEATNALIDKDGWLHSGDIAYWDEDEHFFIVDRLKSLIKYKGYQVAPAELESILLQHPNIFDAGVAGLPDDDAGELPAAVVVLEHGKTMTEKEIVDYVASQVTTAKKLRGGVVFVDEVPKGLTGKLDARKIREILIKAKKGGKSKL

[7] = NIH3T3 cell viability loss – ATP luminescence, mouse fibroblasts, counter-screen, dose response (AID 2010); assay type: functional, cell-based;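 further: cells exposed to compound for about 90 hours before reading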
[8] = Trypanosoma cruzi growth suppression in host cells – NIH3T3 host cells, beta-gal luminescence, confirmation (AID 2044); assay type: functional, cell-based;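 further: intracellular parasites grown in NIH/3T3 mouse fibroblasts as host cells; luminescent beta-galactosidase reporter signal from transgenic T. cruzi replicating inside host cells; inhibitors lower the luminescence signal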
[9] = target: T4, Streptokinase A (Streptococcus pyogenes serotype M1, UniProt P10520); assay: viability-normalized secreted streptokinase activity reduction – plasminogen activation absorbance, OD405, dose response (AID 1914); assay type: functional, Streptococcus pyogenes M1 GAS;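 further: secreted streptokinase activity via plasminogen activation per viability signal from cell pellet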
T4 sequence (P10520 whole entry): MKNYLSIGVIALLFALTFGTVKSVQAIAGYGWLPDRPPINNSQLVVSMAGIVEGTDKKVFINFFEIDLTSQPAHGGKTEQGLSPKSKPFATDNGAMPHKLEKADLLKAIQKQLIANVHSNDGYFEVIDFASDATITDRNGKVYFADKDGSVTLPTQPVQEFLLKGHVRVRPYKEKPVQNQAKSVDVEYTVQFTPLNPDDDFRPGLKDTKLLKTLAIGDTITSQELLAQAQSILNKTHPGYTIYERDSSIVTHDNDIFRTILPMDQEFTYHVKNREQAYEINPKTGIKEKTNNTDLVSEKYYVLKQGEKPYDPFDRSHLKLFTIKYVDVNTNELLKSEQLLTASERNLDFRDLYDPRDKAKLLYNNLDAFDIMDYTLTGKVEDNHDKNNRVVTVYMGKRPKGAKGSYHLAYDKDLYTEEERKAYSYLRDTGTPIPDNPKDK

[10] = NIH-3T3 fibroblast cytotoxicity, dose response, cytotoxicity control, cell-based, fluorescence, Alamar Blue, secondary assay (AID 2327); assay type: functional;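 further: NIH-3T3 mouse fibroblasts cultured with fluconazole at 8 µg/mL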
[11] = fluconazole-exposed Candida albicans growth modulators – fluorescence, retest, confirmation (AID 2467); assay type: functional, cell-based

## CC1CCCN(C(=O)COc2ccc(NC(=O)c3cccs3)cc2)C1 (stereo not given)
[1]
  EC50: > 380 µM (inactive)
[2]
  AC50: > 380 µM (inactive)

## COc1ccc(N2CCN(C(=O)CCCn3nnnc3CN3CCOCC3)C(C)C2)cc1 (stereo not given)
[3]
  IC50: 150 µM (active)

## C=CCn1c(SCc2cccc(F)c2)nc2cc(C(=O)N3CCC(C(N)=O)CC3)ccc2c1=O
[4]
  AC50: 2.27 µM (active)

## CCN(CC(=O)Nc1ccc(S(=O)(=O)N2CCCC2)cc1)CC(=O)Nc1cccc(OC)c1
[3]
  IC50: 35.5 µM (active)

## CCOc1c(OC(C)=O)ccc(/C=C/c2ccc3cccc(OC)c3n2)c1[N+](=O)[O-]
[5]
  EC50: 17.6 µM (active)
[6]
  EC50: > 112 µM (not active)

## O=[N+]([O-])c1c(O)nc(/C=C\c2cccc(F)c2)nc1O
[4]
  AC50: 1.76 µM (active)

## Cc1csc(SCC(=O)Nc2nc(-c3ccccc3)cs2)n1
[5]
  EC50: > 112 µM (not active)
[6]
  EC50: > 112 µM (not active)

## O=C1CSC(c2ccccn2)N1c1cccc(Cl)c1 (stereo not given)
[4]
  AC50: 0.394 µM (active)

## COc1ccccc1CN1CCN(Cc2cc(OC)c(OC)cc2OC)CC1
[3]
  IC50: 73.5 µM (active)

## CCOC(=O)C1CCCN(C(S)=Nc2ccc(Nc3ccccc3)cc2)C1 (stereo not given)
[3]
  IC50: 51 µM (active)

## CCOC(=O)c1sc(=S)n(CC)c1NC(=O)C1CC1
[5]
  EC50: > 112 µM (not active)
[6]
  EC50: > 112 µM (not active)

## CCn1c(SCc2cccc(C(=O)O)c2)nnc1-c1ccccc1
[5]
  EC50: > 112 µM (not active)
[6]
  EC50: > 112 µM (not active)

## CCOc1cc(NC(=O)c2ccccc2C(=O)O)c(OCC)cc1NC(=O)c1ccccc1F
[7]
  EC50: > 60 µM (not active)
[3]
  IC50: 54.8 µM (active)
[8]
  EC50: 5.83 µM (active)

## Clc1ccc(/C=C/c2ncc3ccccn23)cc1
[4]
  AC50: 8.17 µM (active)

## CCN1CCCC1CNC(=O)CS(=O)(=O)Cc1nc(-c2ccccc2C)oc1C (stereo not given)
[5]
  EC50: 64.8 µM (active)
[6]
  EC50: > 112 µM (not active)

## CC(C)NC(=S)NC(c1ccccc1)(c1ccccc1)c1ccccc1
[1]
  EC50: 136 µM (inconclusive)
[2]
  AC50: 3.07 µM (active)
[9]
  EC50: 11.7 µM (active)

## COc1cc(-n2c(S)nnc2-c2ccccc2)c(OC)cc1Cl
[4]
  AC50: 12.3 µM (active)

## c1ccc2nc(N3CCCC3)c(N3CCCC3)nc2c1
[4]
  AC50: 0.034 µM (active)

## COc1ccccc1-n1c(=O)c2c3c(sc2n2c(S)nnc12)CCC3
[3]
  IC50: 50.3 µM (active)

## Oc1c(C(c2cccs2)N2CCOCC2)sc2ncnn12 (stereo not given)
[5]
  EC50: > 112 µM (not active)
[6]
  EC50: > 112 µM (not active)

## COc1ccc(C(=O)Nc2ccc3[nH]ccc3c2)cc1OC
[5]
  EC50: > 112 µM (not active)
[6]
  EC50: > 112 µM (not active)

## CCOc1cc(/C=C/c2cccc[n+]2C)ccc1O
[3]
  IC50: 22.9 µM (active)

## CC(=O)N1N=C(c2ccncc2)OC12CCCC2
[5]
  EC50: > 112 µM (not active)
[6]
  EC50: > 112 µM (not active)

## Oc1ccc(O)c2c1C1c3ccccc3C2c2ccccc21
[10]
  EC50: 25 µM (active)
[11]
  EC50: 2.94 µM (active)
[1]
  EC50: 2.08 µM (active)
[2]
  AC50: 34.5 µM (active)

## Cc1nc(SCc2ccc(Cl)c(Cl)c2)ncc1C(=O)O
[10]
  EC50: > 150 µM (inactive)
[11]
  EC50: 0.78 µM (active)
[4]
  AC50: 0.027 µM (active)

## O=C(O)c1cccc(S(=O)(=O)Nc2ccc(O)c(Sc3nc4ccccc4s3)c2)c1
[4]
  AC50: 0.176 µM (active)

## O=C(NCc1ccccc1)C(c1cccnc1)N(C(=O)c1ccccn1)c1ccc(F)cc1 (stereo not given)
[5]
  EC50: > 112 µM (not active)
[6]
  EC50: > 112 µM (not active)

## COC(CN(C(=O)CCl)C(C(=O)NC1CCCC(C)C1C)c1ccc(C)cc1)OC (stereo not given)
[1]
  EC50: 2.11 µM (active)
[2]
  AC50: 24.6 µM (active)

## Nc1cccc(-c2cn3cccnc3n2)c1
[4]
  AC50: 0.232 µM (active)

## O=C(O)/C=C/C(=O)Nc1ccc(SC(F)(F)C(F)(F)C(F)(F)F)cc1
[1]
  EC50: 2.59 µM (active)
[2]
  AC50: 11.7 µM (active)

## CCc1ccc(-c2cc(C)no2)cc1S(=O)(=O)NCCN1CCC(C)CC1
[5]
  EC50: > 112 µM (not active)
[6]
  EC50: > 112 µM (not active)

## Cc1onc(-c2ccccc2Cl)c1C(=O)N1CCc2ccccc2C1
[5]
  EC50: > 112 µM (not active)
[6]
  EC50: > 112 µM (not active)

## Cc1c(Cl)cccc1Nc1nnc(S)s1
[3]
  IC50: 108 µM (active)

## COc1cc(/C=C/C(=O)OCC(=O)Nc2cccc(F)c2)ccc1O
[3]
  IC50: 41.6 µM (active)

## CCc1n[nH]c2c1C(c1ccc(C)o1)C(C#N)=C(N)O2 (stereo not given)
[1]
  EC50: 4.31 µM (active)
[2]
  AC50: 37.3 µM (active)

## O=C(N/N=C/c1ccc(O)c(O)c1)c1ccc(-n2cnnn2)cc1
[3]
  IC50: 18.6 µM (active)

## C/C(=N\Nc1nc2ccccc2[nH]1)c1ccc(C)o1
[3]
  IC50: 69 µM (active)
[4]
  AC50: 0.299 µM (active)

## COc1ccc(COC(=O)N/N=C(\C)CC(=O)Nc2ccc(Cl)cn2)cc1
[1]
  EC50: 4.27 µM (active)
[2]
  AC50: 5.46 µM (active)

## Sc1nncn1/N=C/c1ccccn1
[4]
  AC50: 3.06 µM (active)
